Assay results published in US5593984A, “Cephalosporin derivatives” (Yuhan Corporation, priority 1992, dated 1997).
In brackets after ≈: the same amount, converted by molar mass.

Experiments:
Assay type in all cases: cell-based
Staph. aureus Smith = assay: MIC by agar dilution, Staph. aureus Smith; conditions: Staphylococcus aureus, 17 h, Mueller-Hinton agar, read-out: Minimal Inhibitory Concentration (MIC)
Protocol: (§1) These MIC values were determined by agar dilution method: that is, two-fold dilutions of each of the test compounds were made and dispersed in a Mueller-Hinton agar medium; standard test strain which had the 10^6 CFU (Colony Forming Unit) per ml was inoculated on the medium with microplanter (Toyo, Japan), and incubated at 35°-37° C. for 17±1 hours. The structures of Ceftazidime (CAZ) and Cefotaxime (CTX) which are used as control compounds are as follows: [drawing 12]

Ent. aerogenes IFO 12979 = assay: MIC by agar dilution, Ent. aerogenes IFO 12979; conditions: Klebsiella aerogenes, IFO12979, 17 h, Mueller-Hinton agar, read-out: Minimal Inhibitory Concentration (MIC)
Protocol: as §1

Staph. aureus C-57 = assay: MIC by agar dilution, Staph. aureus C-57; conditions: Staphylococcus aureus, C57, 17 h, Mueller-Hinton agar, read-out: Minimal Inhibitory Concentration (MIC)
Protocol: as §1

Prov. stuartii IFO 12930 = assay: MIC by agar dilution, Prov. stuartii IFO 12930; conditions: Providencia stuartii, IFO12930, 17 h, Mueller-Hinton agar, read-out: Minimal Inhibitory Concentration (MIC)
Protocol: as §1

[1] = tested on: Ps. aeruginosa NCTC 10490; assay: MIC by agar dilution, Ps. aeruginosa NCTC 10490; conditions: Pseudomonas aeruginosa, NCTC10490, 17 h, Mueller-Hinton agar, read-out: Minimal Inhibitory Concentration (MIC)
Protocol: as §1

E. coli DY-1 = assay: MIC by agar dilution, E. coli DY-1; conditions: Escherichia coli, DY1, 17 h; E. coli DY-1; agar dilution, Mueller-Hinton agar; read-out: Minimal Inhibitory Concentration (MIC)
Protocol: as §1

E. coli NIHJ JC-2 = assay: MIC by agar dilution, E. coli NIHJ JC-2; conditions: Escherichia coli, NIHJJC2, 17 h; E. coli NIHJ JC-2; agar dilution, Mueller-Hinton agar; read-out: Minimal Inhibitory Concentration (MIC)
Protocol: as §1

Staph. aureus C-5113 = assay: MIC by agar dilution, Staph. aureus C-5113; conditions: Staphylococcus aureus, C5113, 17 h, Mueller-Hinton agar, read-out: Minimal Inhibitory Concentration (MIC)
Protocol: as §1

Ps. aeruginosa DY-2 = assay: MIC by agar dilution, Ps. aeruginosa DY-2; conditions: Pseudomonas aeruginosa, DY2, 17 h; Ps. aeruginosa DY-2; agar dilution, Mueller-Hinton agar; read-out: Minimal Inhibitory Concentration (MIC)
Protocol: as §1

M. morganii DY-1 = assay: MIC by agar dilution, M. morganii DY-1; conditions: Morganella morganii, DY1, 17 h; M. morganii DY-1; agar dilution, Mueller-Hinton agar; read-out: Minimal Inhibitory Concentration (MIC)
Protocol: as §1

Staph. aureus ATCC 6538P = assay: MIC by agar dilution, Staph. aureus ATCC 6538P; conditions: Staphylococcus aureus, ATCC6538P, 17 h; Staph. aureus ATCC 6538P; agar dilution, Mueller-Hinton agar; read-out: Minimal Inhibitory Concentration (MIC)
Protocol: as §1

Ent. cloacae IFO 13535 = assay: MIC by agar dilution, Ent. cloacae IFO 13535; conditions: Enterobacter cloacae, IFO13535, 17 h; Ent. cloacae IFO 13535; agar dilution, Mueller-Hinton agar; read-out: Minimal Inhibitory Concentration (MIC)
Protocol: as §1

K. pneumoniae NCTC 9632 = assay: MIC by agar dilution, K. pneumoniae NCTC 9632; conditions: Klebsiella pneumoniae, NCTC9632, 17 h; K. pneumoniae NCTC 9632; agar dilution, Mueller-Hinton agar; read-out: Minimal Inhibitory Concentration (MIC)
Protocol: as §1

[2] = tested on: Ps. aeruginosa ATCC 10145; assay: MIC by agar dilution, Ps. aeruginosa ATCC 10145; conditions: Pseudomonas aeruginosa, ATCC10145, 17 h, Mueller-Hinton agar, read-out: Minimal Inhibitory Concentration (MIC)
Protocol: as §1

P. vulgaris NCTC 8313 = assay: MIC by agar dilution, P. vulgaris NCTC 8313; conditions: Proteus vulgaris, NCTC8313, 17 h; P. vulgaris NCTC 8313; agar dilution, Mueller-Hinton agar; read-out: Minimal Inhibitory Concentration (MIC)
Protocol: as §1

Staph. aureus C-5216 = assay: MIC by agar dilution, Staph. aureus C-5216; conditions: Staphylococcus aureus, C5216, 17 h, Mueller-Hinton agar, read-out: Minimal Inhibitory Concentration (MIC)
Protocol: as §1

B. subtilis ATCC 6633 = assay: MIC by agar dilution, B. subtilis ATCC 6633; conditions: Bacillus subtilis, ATCC6633, 17 h; B. subtilis ATCC 6633; agar dilution, Mueller-Hinton agar; read-out: Minimal Inhibitory Concentration (MIC)
Protocol: as §1

[3] = tested on: Ser. marcescens IFO 12648; assay: MIC by agar dilution, Ser. marcescens IFO 12648; conditions: Serratia marcescens, IFO12648, 17 h; Ser. marcescens IFO 12648; agar dilution, Mueller-Hinton agar; read-out: Minimal Inhibitory Concentration (MIC)
Protocol: as §1

[4] = tested on: S. epidermidis ATCC 12228; assay: MIC by agar dilution, S. epidermidis ATCC 12228; conditions: Staphylococcus epidermidis, ATCC12228, 17 h; S. epidermidis ATCC 12228; agar dilution, Mueller-Hinton agar; read-out: Minimal Inhibitory Concentration (MIC)
Protocol: as §1

E. coli No. 29 = assay: MIC by agar dilution, E. coli No. 29; conditions: Escherichia coli, 17 h; E. coli No. 29; agar dilution, Mueller-Hinton agar; read-out: Minimal Inhibitory Concentration (MIC)
Protocol: as §1

SMILES	MIC (Staph. aureus Smith)	MIC (Ent. aerogenes IFO 12979)	MIC (Staph. aureus C-57)	MIC (Prov. stuartii IFO 12930)	MIC [1]	MIC (E. coli DY-1)	MIC (E. coli NIHJ JC-2)	MIC (Staph. aureus C-5113)	MIC (Ps. aeruginosa DY-2)	MIC (M. morganii DY-1)	MIC (Staph. aureus ATCC 6538P)	MIC (Ent. cloacae IFO 13535)	MIC (K. pneumoniae NCTC 9632)	MIC [2]	MIC (P. vulgaris NCTC 8313)	MIC (Staph. aureus C-5216)	MIC (B. subtilis ATCC 6633)	MIC [3]	MIC [4]	MIC (E. coli No. 29)
Nc1nc(C(=NOCCF)C(=O)NC2C(=O)N3C(C(=O)[O-])=C(C[n+]4ccn5cccc5c4)CSC23)cs1 (stereo not drawn) [Ex. 5, 7-β-[(Z)-2-(2-aminothiazol-4-yl)-2-(2-fluoroethoxyimino)acetamido]-3-(pyrrolo[1,2-a]pyrazinium-2-yl)methyl-3-cephem-4-carboxylate]	0.2 mg/L (≈ 0.367 µM)	≤ 0.006 mg/L	12.5 mg/L (≈ 22.9 µM)	≤ 0.006 mg/L	0.2 mg/L (≈ 0.367 µM)	≤ 0.006 mg/L	0.012 mg/L (≈ 0.022 µM)	0.2 mg/L (≈ 0.367 µM)	1.56 mg/L (≈ 2.86 µM)	≤ 0.006 mg/L	0.2 mg/L (≈ 0.367 µM)	0.025 mg/L (≈ 0.0458 µM)	≤ 0.006 mg/L	0.39 mg/L (≈ 0.715 µM)	≤ 0.006 mg/L	0.2 mg/L (≈ 0.367 µM)	0.1 mg/L (≈ 0.183 µM)	≤ 0.006 mg/L	0.025 mg/L (≈ 0.0458 µM)	≤ 0.006 mg/L
Nc1nc(C(=NOCF)C(=O)NC2C(=O)N3C(C(=O)[O-])=C(C[n+]4ccn5cccc5c4)CSC23)cs1 (stereo not drawn) [Ex. 6, 7-β-[(Z)-2-(2-aminothiazol-4-yl)-2-fluoromethoxyiminoacetamido]-3-(pyrrolo[1,2-a]pyrazinium-2-yl)methyl-3-cephem-4-carboxylate]	0.39 mg/L (≈ 0.734 µM)	0.012 mg/L (≈ 0.0226 µM)	25 mg/L (≈ 47 µM)	≤ 0.006 mg/L	0.2 mg/L (≈ 0.376 µM)	≤ 0.006 mg/L	0.012 mg/L (≈ 0.0226 µM)	1.56 mg/L (≈ 2.93 µM)	3.13 mg/L (≈ 5.89 µM)	≤ 0.006 mg/L	0.2 mg/L (≈ 0.376 µM)	0.05 mg/L (≈ 0.0941 µM)	0.012 mg/L (≈ 0.0226 µM)	0.39 mg/L (≈ 0.734 µM)	≤ 0.006 mg/L	0.78 mg/L (≈ 1.47 µM)	0.2 mg/L (≈ 0.376 µM)	0.012 mg/L (≈ 0.0226 µM)	0.1 mg/L (≈ 0.188 µM)	≤ 0.006 mg/L
Nc1nc(/C(=N\O)C(=O)N[C@@H]2C(=O)N3C(C(=O)[O-])=C(C[n+]4ccn5cccc5c4)CS[C@H]23)cs1 [Ex. 7, 7-β-[(Z)-2-(2-aminothiazol-4-yl)-2-hydroxyiminoacetamido]-3-(pyrrolo[1,2-a]pyrazinium-2-yl)methyl-3-cephem-4-carboxylate]	0.39 mg/L (≈ 0.781 µM)	0.1 mg/L (≈ 0.2 µM)	25 mg/L (≈ 50 µM)	0.012 mg/L (≈ 0.024 µM)	0.39 mg/L (≈ 0.781 µM)	0.05 mg/L (≈ 0.1 µM)	0.05 mg/L (≈ 0.1 µM)	0.39 mg/L (≈ 0.781 µM)	25 mg/L (≈ 50 µM)	0.1 mg/L (≈ 0.2 µM)	0.1 mg/L (≈ 0.2 µM)	0.39 mg/L (≈ 0.781 µM)	0.1 mg/L (≈ 0.2 µM)	1.56 mg/L (≈ 3.12 µM)	0.2 mg/L (≈ 0.4 µM)	0.39 mg/L (≈ 0.781 µM)	0.2 mg/L (≈ 0.4 µM)	0.1 mg/L (≈ 0.2 µM)	0.025 mg/L (≈ 0.05 µM)	0.05 mg/L (≈ 0.1 µM)
CON=C(C(=O)NC1C(=O)N2C(C(=O)[O-])=C(C[n+]3ccn4c(SCCO)ccc4c3)CSC12)c1csc(N)n1 (stereo not drawn) [Ex. 8, 7-β-[(Z)-2-(2-aminothiazol-4-yl)-2-methoxyiminoacetamido]-3-[6-(2-hydroxyethylthio)pyrrolo[1,2-a]pyrazinium-2-yl]methyl-3-cephem-4-carboxylate]	0.2 mg/L (≈ 0.339 µM)	0.012 mg/L (≈ 0.0203 µM)	25 mg/L (≈ 42.4 µM)	≤ 0.006 mg/L	0.2 mg/L (≈ 0.339 µM)	≤ 0.006 mg/L	0.012 mg/L (≈ 0.0203 µM)	0.39 mg/L (≈ 0.661 µM)	3.13 mg/L (≈ 5.31 µM)	0.025 mg/L (≈ 0.0424 µM)	0.1 mg/L (≈ 0.17 µM)	1.56 mg/L (≈ 2.65 µM)	0.012 mg/L (≈ 0.0203 µM)	0.78 mg/L (≈ 1.32 µM)	0.012 mg/L (≈ 0.0203 µM)	0.78 mg/L (≈ 1.32 µM)	0.1 mg/L (≈ 0.17 µM)	0.012 mg/L (≈ 0.0203 µM)	0.1 mg/L (≈ 0.17 µM)	≤ 0.006 mg/L
